From paper PMC4494771, “Synthesis, structure, and biological activity of novel heterocyclic sulfonyl-carboximidamides” (Monatshefte Fur Chemie, 2013)
In brackets after ≈: the same amount, converted by molar mass.

Experiments:
OVCAR-8 = assay: NCI-60 DTP human tumor cell line screening; type: cell-based; conditions: Ovarian cancer OVCAR-8
UO-31 = assay: NCI-60 DTP human tumor cell line screening; type: cell-based; conditions: Renal cancer UO-31
A498 = assay: NCI-60 DTP human tumor cell line screening; type: cell-based; conditions: Renal cancer A498
SN 12C = assay: NCI-60 DTP human tumor cell line screening; type: cell-based; conditions: Renal cancer SN 12C
BT-549 = assay: NCI-60 DTP human tumor cell line screening; type: cell-based; conditions: Breast cancer BT-549
NCI-H23 = assay: NCI-60 DTP human tumor cell line screening; type: cell-based; conditions: Non-small cell lung cancer NCI-H23
SF-539 = assay: NCI-60 DTP human tumor cell line screening; type: cell-based; conditions: CNS cancer SF-539
EKVX = assay: NCI-60 DTP human tumor cell line screening; type: cell-based; conditions: Non-small cell lung cancer EKVX
786-0 = assay: NCI-60 DTP human tumor cell line screening; type: cell-based; conditions: Renal cancer 786-0
KM12 = assay: NCI-60 DTP human tumor cell line screening; type: cell-based
OVCAR-5 = assay: NCI-60 DTP human tumor cell line screening; type: cell-based; conditions: Ovarian cancer OVCAR-5
UACC-257 = assay: NCI-60 DTP human tumor cell line screening; type: cell-based; conditions: Melanoma UACC-257
SW-620 = assay: NCI-60 DTP human tumor cell line screening; type: cell-based
DU-145 = assay: NCI-60 DTP human tumor cell line screening; type: cell-based; conditions: Prostate cancer DU-145
PC-3 = assay: NCI-60 DTP human tumor cell line screening; type: cell-based; conditions: Prostate cancer PC-3
MALME-3M = assay: NCI-60 DTP human tumor cell line screening; type: cell-based; conditions: Melanoma MALME-3M
OVCAR-4 = assay: NCI-60 DTP human tumor cell line screening; type: cell-based; conditions: Ovarian cancer OVCAR-4
SR = assay: NCI-60 DTP human tumor cell line screening; type: cell-based; conditions: Leukemia SR
TK-10 = assay: NCI-60 DTP human tumor cell line screening; type: cell-based
HS 578T = assay: NCI-60 DTP human tumor cell line screening; type: cell-based; conditions: Breast cancer HS 578T
RPMI-8226 = assay: NCI-60 DTP human tumor cell line screening; type: cell-based; conditions: Leukemia RPMI-8226
leukemia cell lines = assay: NCI-60 DTP human tumor cell line screening, leukemia panel; type: cell-based; conditions: mean for leukemia cell line panel, read-out: GI 50 mean value
MCF-7 = assay: NCI-60 DTP human tumor cell line screening; type: cell-based
A549/ATCC = assay: NCI-60 DTP human tumor cell line screening; type: cell-based; conditions: Non-small cell lung cancer A549/ATCC
SK-MEL-28 = assay: NCI-60 DTP human tumor cell line screening; type: cell-based; conditions: Melanoma SK-MEL-28
NCI-H460 = assay: NCI-60 DTP human tumor cell line screening; type: cell-based
HL-60 (TB) = assay: NCI-60 DTP human tumor cell line screening; type: cell-based
[1] = tested on: panel of 60 human tumor cell lines; assay: NCI-60 DTP human tumor cell line screening, whole panel
SK-OV-3 = assay: NCI-60 DTP human tumor cell line screening; type: cell-based; conditions: Ovarian cancer SK-OV-3
NCI-H522 = assay: NCI-60 DTP human tumor cell line screening; type: cell-based; conditions: Non-small cell lung cancer NCI-H522
ACHN = assay: NCI-60 DTP human tumor cell line screening; type: cell-based; conditions: Renal cancer ACHN
P. acnes ATCC 11827 = assay: Antibacterial activity, MIC in broth serial dilution
Description: Compounds were tested at serial dilutions in bacterial broth starting at 100 μg/cm^3 (final concentration). P. acnes (ATCC 11827, lot 419697) was grown in thioglycollate nutrient broth (Hardy Diagnostics K29) for 72 h at 33 °C, then inoculated at the density equivalent to 0.5 McFarland standard and incubated with the test materials for another 72 h in an anaerobic environment. […] At the end of the incubation the MIC was assessed optically as the lowest concentration of a test material which caused no bacteria growth [34]. This optical assessment was further confirmed by measuring the absorbance at 655 nm with the BioRad 3550-UV microplate reader. The MIC was defined as at least 50 % inhibition of the increase of OD.

MDA-MB-468 = assay: NCI-60 DTP human tumor cell line screening; type: cell-based
RXF 393 = assay: NCI-60 DTP human tumor cell line screening; type: cell-based; conditions: Renal cancer RXF 393

NC(=NS(=O)(=O)c1ccccc1Cl)c1ccc2ccccc2n1 [Compound 15, N′-(2-Chlorophenylsulfonyl)quinoline-2-carboximidamide]
GI50 (OVCAR-8; Homo sapiens): 5.74 µM | TGI (OVCAR-8): 12.00 µM | GI50 (UO-31; Homo sapiens): 7.26 µM | TGI (UO-31): 48.50 µM | GI50 (A498; Homo sapiens): 8.08 µM | TGI (A498): ^c (Determined TGI values were >100 μM) | GI50 (SN 12C; Homo sapiens, SN12C): 7.67 µM | TGI (SN 12C): ^c (Determined TGI values were >100 μM) | TGI (BT-549): 56.00 µM | GI50 (BT-549; Homo sapiens): 5.08 µM | GI50 (NCI-H23; Homo sapiens): 5.44 µM | TGI (NCI-H23): ^c (Determined TGI values were >100 μM) | TGI (SF-539): ^c (Determined TGI values were >100 μM) | GI50 (SF-539; Homo sapiens): 4.19 µM | GI50 (EKVX; Homo sapiens): 8.75 µM | TGI (EKVX): ^c (Determined TGI values were >100 μM) | GI50 (786-0; Homo sapiens): 4.94 µM | TGI (786-0): ^c (Determined TGI values were >100 μM) | TGI (KM12; Colon cancer KM12): ^c (Determined TGI values were >100 μM) | inhibition at 10 µM (KM12; Homo sapiens, KM12, read-out: Growth inhibition ΔGI): 23% | GI50 (KM12; Homo sapiens, Colon cancer KM12): 3.29 µM | GI50 (OVCAR-5; Homo sapiens): 7.71 µM | TGI (OVCAR-5): ^c (Determined TGI values were >100 μM) | GI50 (UACC-257; Homo sapiens): 11.7 µM | TGI (UACC-257): ^c (Determined TGI values were >100 μM) | TGI (SW-620; Colon cancer SW-620): ^c (Determined TGI values were >100 μM) | inhibition at 10 µM (SW-620; Homo sapiens, SW-620, read-out: Growth inhibition ΔGI): 24.7% | GI50 (SW-620; Homo sapiens, Colon cancer SW-620): 3.45 µM | GI50 (DU-145; Homo sapiens): 4.96 µM | TGI (DU-145): ^c (Determined TGI values were >100 μM) | GI50 (PC-3; Homo sapiens): 9.59 µM | TGI (PC-3): ^c (Determined TGI values were >100 μM) | GI50 (MALME-3M; Homo sapiens): 5.42 µM | TGI (MALME-3M): ^c (Determined TGI values were >100 μM) | GI50 (OVCAR-4; Homo sapiens): 9.15 µM | TGI (OVCAR-4): 9.53 µM | GI50 (SR; Homo sapiens): 0.92 µM | TGI (SR): 21.40 µM | inhibition at 10 µM (TK-10; Homo sapiens, TK-10, read-out: Growth inhibition ΔGI): 21.7% | GI50 (TK-10; Homo sapiens, Renal cancer TK-10): 6.02 µM | TGI (TK-10; Renal cancer TK-10): 7.08 µM | TGI (HS 578T): ^c (Determined TGI values were >100 μM) | GI50 (HS 578T; Homo sapiens): 8.98 µM | GI50 (RPMI-8226; Homo sapiens): 5.27 µM | TGI (RPMI-8226): ^c (Determined TGI values were >100 μM) | GI50 (leukemia cell lines): 3.52 µM | TGI (MCF-7; Breast cancer MCF-7): ^c (Determined TGI values were >100 μM) | inhibition at 10 µM (MCF-7; Homo sapiens, MCF7, read-out: Growth inhibition ΔGI): 15.7% | GI50 (MCF-7; Homo sapiens, MCF7, Breast cancer MCF-7): 3.28 µM | GI50 (A549/ATCC; Homo sapiens): 5.37 µM | TGI (A549/ATCC): ^c (Determined TGI values were >100 μM) | GI50 (SK-MEL-28; Homo sapiens): 5.45 µM | TGI (SK-MEL-28): 12.00 µM | inhibition at 10 µM (NCI-H460; Homo sapiens, NCI-H460, read-out: Growth inhibition ΔGI): 19.6% | GI50 (NCI-H460; Homo sapiens, Non-small cell lung cancer NCI-H460): 4.02 µM | TGI (NCI-H460; Non-small cell lung cancer NCI-H460): ^c (Determined TGI values were >100 μM) | inhibition at 10 µM (HL-60 (TB); Homo sapiens, HL-60, read-out: Growth inhibition ΔGI): 19.7% | GI50 (HL-60 (TB); Homo sapiens, Leukemia HL-60 (TB)): 2.29 µM | TGI (HL-60 (TB); Leukemia HL-60 (TB)): 8.41 µM | Growth percent mean values (MG_MID) ([1]; 10 μM, mean of growth percent for all tested cell lines): 53.4% | GI50 ([1]; Homo sapiens): 0.92 to 13 µM | CC50 ([1]; Homo sapiens, SK-MEL-5, read-out: LC 50): > 100 µM | GI50 (SK-OV-3; Homo sapiens): 3.93 µM | TGI (SK-OV-3): ^c (Determined TGI values were >100 μM) | GI50 (NCI-H522; Homo sapiens): 2.28 µM | TGI (NCI-H522): 7.62 µM | GI50 (ACHN; Homo sapiens): 7.19 µM | TGI (ACHN): 13.10 µM | MIC (P. acnes ATCC 11827; Cutibacterium acnes, ATCC11827, 72 h, read-out: MIC P. acnes, P. acnes ATCC 11827, 72 h anaerobic): 12.5 to 50 µg/mL (≈ 36.1 to 145 µM) | MIC P. acnes (P. acnes ATCC 11827; P. acnes ATCC 11827, 72 h anaerobic): 12.5 µg/mL (≈ 36.1 µM) | TGI (MDA-MB-468; Breast cancer MDA-MB-468): 6.19 µM | inhibition at 10 µM (MDA-MB-468; Homo sapiens, MDA-MB-468, read-out: Growth inhibition ΔGI): 42.2% | GI50 (MDA-MB-468; Homo sapiens, Breast cancer MDA-MB-468): 2.01 µM | GI50 (RXF 393; Homo sapiens): 4.02 µM | TGI (RXF 393): 35.90 µM
